Data reported in BindingDB's records for patent US20230357269 (Les Laboratoires Servier, 2023).

Molecular target: Leucine-rich repeat serine/threonine-protein kinase 2 (Homo sapiens, UniProt Q5S007)
Experiment: LRRK2 Kinase Activity Assay
Procedure: LRRK2 Kinase reactions were carried out in 384-well white polystyrene plates in a final volume of 6 μl using ADP-Glo Kinase Assay kit (Promega Corp.). Compound and substrates (LRRKtide peptide and ATP) in assay buffer were first dispensed in wells. Kinase reaction was then started by the addition of human recombinant LRRK2 protein. After 1h-incubation at 37 C., the enzymatic reaction was stopped by the addition of 6 μl of ADP-Glo Reagent-1 and an additional 40-minutes incubation at 23 C. (residual ATP depletion). A final 30-minutes incubation after 12 μL reagent-2 addition (ADP to ATP conversion and luciferin/luciferase reaction) was performed before luminescent signal acquisition (EnVision multimode plate reader-PerkinElmer, Inc.). Data from 10 individual concentrations of tested compounds (N=2) were fitted (XLfit -ID Business Solutions Ltd) to deliver IC50s (compound concentration leading to 50% inhibition of reference enzymatic activity).

Leucine-rich repeat serine/threonine-protein kinase 2, sequence (Q5S007 whole entry): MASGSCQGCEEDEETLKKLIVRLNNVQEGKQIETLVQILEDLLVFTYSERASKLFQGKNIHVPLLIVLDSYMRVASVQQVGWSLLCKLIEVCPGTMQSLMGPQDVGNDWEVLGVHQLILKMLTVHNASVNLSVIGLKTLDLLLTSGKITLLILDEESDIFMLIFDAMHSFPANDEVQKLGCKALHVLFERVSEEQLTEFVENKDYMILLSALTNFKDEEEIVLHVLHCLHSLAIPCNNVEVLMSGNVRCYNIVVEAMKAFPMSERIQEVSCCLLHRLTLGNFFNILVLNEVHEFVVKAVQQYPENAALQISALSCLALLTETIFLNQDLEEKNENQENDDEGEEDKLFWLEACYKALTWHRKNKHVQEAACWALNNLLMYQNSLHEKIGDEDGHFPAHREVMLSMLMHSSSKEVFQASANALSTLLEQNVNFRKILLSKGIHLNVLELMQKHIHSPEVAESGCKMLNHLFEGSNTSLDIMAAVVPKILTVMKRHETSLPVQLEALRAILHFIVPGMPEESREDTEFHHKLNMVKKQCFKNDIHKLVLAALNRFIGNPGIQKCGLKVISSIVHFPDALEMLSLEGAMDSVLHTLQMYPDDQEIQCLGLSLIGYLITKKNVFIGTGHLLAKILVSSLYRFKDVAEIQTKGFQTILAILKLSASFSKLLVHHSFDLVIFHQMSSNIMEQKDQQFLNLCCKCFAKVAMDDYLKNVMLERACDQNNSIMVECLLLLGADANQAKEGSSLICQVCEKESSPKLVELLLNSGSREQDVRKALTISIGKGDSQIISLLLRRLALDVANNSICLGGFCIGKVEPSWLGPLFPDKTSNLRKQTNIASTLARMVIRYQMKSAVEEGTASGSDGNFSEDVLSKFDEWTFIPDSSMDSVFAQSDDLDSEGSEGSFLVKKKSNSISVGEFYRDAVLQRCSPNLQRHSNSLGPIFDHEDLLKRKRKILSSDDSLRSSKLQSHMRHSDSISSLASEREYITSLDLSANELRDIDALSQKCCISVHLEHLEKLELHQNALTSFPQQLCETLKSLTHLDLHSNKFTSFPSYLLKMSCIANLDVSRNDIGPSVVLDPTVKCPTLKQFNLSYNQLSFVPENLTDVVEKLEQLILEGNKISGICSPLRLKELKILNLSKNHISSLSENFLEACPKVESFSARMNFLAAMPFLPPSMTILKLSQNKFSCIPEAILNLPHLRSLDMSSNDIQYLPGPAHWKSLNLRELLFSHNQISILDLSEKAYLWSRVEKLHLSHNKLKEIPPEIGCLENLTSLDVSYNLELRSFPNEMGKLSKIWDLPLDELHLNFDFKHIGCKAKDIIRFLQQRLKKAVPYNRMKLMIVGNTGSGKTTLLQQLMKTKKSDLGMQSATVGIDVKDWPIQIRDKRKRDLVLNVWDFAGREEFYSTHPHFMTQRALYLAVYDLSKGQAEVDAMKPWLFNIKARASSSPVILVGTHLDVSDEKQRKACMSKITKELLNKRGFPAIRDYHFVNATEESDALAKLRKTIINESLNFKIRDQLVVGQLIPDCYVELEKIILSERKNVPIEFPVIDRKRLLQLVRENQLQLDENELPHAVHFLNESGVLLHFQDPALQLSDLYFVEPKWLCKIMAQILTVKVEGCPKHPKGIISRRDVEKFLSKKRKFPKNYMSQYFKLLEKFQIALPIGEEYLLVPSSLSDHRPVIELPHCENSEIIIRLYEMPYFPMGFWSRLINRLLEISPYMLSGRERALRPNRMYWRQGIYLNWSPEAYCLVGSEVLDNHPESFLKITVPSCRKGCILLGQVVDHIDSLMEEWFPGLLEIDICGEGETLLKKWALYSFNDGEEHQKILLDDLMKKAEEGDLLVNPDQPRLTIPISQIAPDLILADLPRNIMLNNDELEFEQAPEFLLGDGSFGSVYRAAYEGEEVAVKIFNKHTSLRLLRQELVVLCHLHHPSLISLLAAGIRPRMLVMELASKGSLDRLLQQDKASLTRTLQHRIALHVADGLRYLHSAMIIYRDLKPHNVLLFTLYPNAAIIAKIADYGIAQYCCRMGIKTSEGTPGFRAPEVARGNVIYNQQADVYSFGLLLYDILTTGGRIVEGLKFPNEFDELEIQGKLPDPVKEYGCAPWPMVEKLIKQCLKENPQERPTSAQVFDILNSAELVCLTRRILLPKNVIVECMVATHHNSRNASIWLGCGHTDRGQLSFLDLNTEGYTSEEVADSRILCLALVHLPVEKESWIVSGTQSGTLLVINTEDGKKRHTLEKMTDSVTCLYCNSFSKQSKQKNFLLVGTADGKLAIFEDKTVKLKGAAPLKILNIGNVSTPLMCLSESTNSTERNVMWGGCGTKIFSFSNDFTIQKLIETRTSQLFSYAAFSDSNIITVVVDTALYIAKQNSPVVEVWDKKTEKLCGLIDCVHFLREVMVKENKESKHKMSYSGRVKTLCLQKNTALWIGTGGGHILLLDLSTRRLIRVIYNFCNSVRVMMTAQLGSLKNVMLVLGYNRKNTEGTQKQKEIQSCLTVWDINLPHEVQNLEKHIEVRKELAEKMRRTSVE

IC50 [nM] | Compound
< 10 | O=C1NCCCOc2ccc3[nH]nc(c3c2)-c2cc(Br)cc(c2)CO1 [US20230357269, Example 9]
< 10 | O=C1NCCCOc2ccc3[nH]nc(c3c2)-c2ccc(Br)c(c2)CO1 [US20230357269, Example 30]
